In US9187430B2, “Poly (ADP-ribose) polymerase inhibitor” (CHENGDU DI'AO PHARMACEUTICAL GROUP CO., LTD., priority 2011, dated 2015):
Values after ≈ are worked out from the molar mass of the structure shown.

Experiments:
[1] = test system: triple-negative phenotypic breast cancer cell line MDA-MB-436; experiment: Cell proliferation inhibition assay (SRB method); type: cell-based; conditions: Homo sapiens, 144 h; BRCA-deficient MDA-MB-436, six days, compound alone
Text: Cell Proliferation Inhibition Assay
This assay was used to study the effect of PARP-1 inhibitor alone for tumor suppression. Breast cancer susceptibility genes BRCA1 and BRCA2 play an important role in homologous recombination DNA repair. BRCA-deficient cells represent homologous recombination repair defect, if PARP-mediated DNA repair is inhibited at the same time, DNA damage in cells may be increased, resulting in chromatin abnormality or even cell death.
BRCA-deficient breast cancer cell line MDA-MB-436 was selected for the assay, PARP inhibitor was used alone to evaluate its damage effect on cells. The inhibition effect of the compound was expressed by IC50.
Breast cancer cell line MDA-MB-436 in good growth condition seeded in 96-well plates (5000 cells/well or 3000 cells/well, respectively), and cultured overnight in an incubator at 37° C., 5% CO2 with saturated humidity. On the next day, samples with a series of concentration gradients were added and cultured for another six days. SRB method was used to detect the samples' inhibition on cell growth and calculate their growth inhibition rate.

[2] = Solubility test (thermodynamic solubility, HPLC external standard); type: physicochemical; conditions: aqueous buffer, thermodynamic from solid; pH=7.4 phosphate buffer, 25° C., shaken 24 hours; read-out: Water Solubility (PH = 7.4)
Experimental: In this test, excess amount of test sample was added into pH=7.4 phosphate buffer. Ultrasonic was performed for 30 min until the drug no longer dissolved. The solution was continuously shaked for 24 hours at a constant temperature of 25° C. to achieve a thermodynamic equilibrium of compound, and then the solution was filtrated to get filtrate. Quantitative analysis of compound in filtrate using external standard method is performed according to “Appendix VD High Performance Liquid Chromatography, Part II of Pharmacopeia 2010,” and the sample thermodynamic solubility in pH=7.4 phosphate buffered solution was determined.
Agilent 1200 LC, Phenomen C18 column (4.6 mm*150 mm, […]), mobile phase: methanol:water (60:40), flow rate: 1 mL/min, column temperature: 25° C., wave length: 230 nm, injection volume: 10 μL
About 30 mg test compound was put in a 10 mL volumetric flask, about 8 mL pH=7.4 phosphate buffer was added and ultrasonic was performed for 30 min, and the solution was shaked for 24 hours in a shaker at a constant temperature of 25° C. The solution was settled for half an hour under 25° C., filtered with […] hydrophilic filter. The filtrate was used as test sample.
Standard compound AZD-2281 was put in a volumetric flask and dissolved in the mobile phase. The solutions were injected to measure the peak area. The retention time of AZD-2281 was about 8.5 min. The peak area was regressed against concentration to get a regression equation y=29.66x+302.82 (r=0.9997), and the linear range is 52.45˜83.92 µg/mL (see FIG. 1).
The test solution was injected for three times according to the above chromatographic conditions. The peak area was measured to calculate the corresponding concentration.
The procedures for testing the solubility of other compounds were similar with compound AZD-2281.

[3] = test system: occlusion of the MCA in mice; conditions: intracerebroventricular administration; cited from earlier work
[4] = test system: rat model of focal cerebral ischemia; conditions: i.p. 10 mg/kg two hours prior to and two hours after the initiation of ischemia; cited from earlier work

Row | IC50 [1] | solubility at 24 h [2] | SMILES | other results
1 |  |  | NC(=O)c1cccc(N)c1 [Compound 3-AB, 3-aminobenzamide] | decrease in infarct volume [3]: 47%
2 | 4.21 µM |  | C[C@@H](C(=O)N1CCN(C(=O)c2cc(Oc3n[nH]c(=O)c4ccccc34)ccc2F)CC1)c1ccccc1 [Compound 49, (R)-4-(4-fluoro-3-(4-(2-phenylpropionyl)piperazine-1-carbonyl)phenoxy)-2H-phthalazin-1-one] | 
3 |  | 0.602 mg/mL (≈ 1330 µM) | CC(C)(C)C(=O)N1CCN(C(=O)c2cc(Oc3n[nH]c(=O)c4ccccc34)ccc2F)CC1 [Compound 55, 4-(4-fluoro-3-(4-pivaloylpiperazine-1-carbonyl)phenoxy)-2H-phthalazin-1-one] | 
4 | 1.98 µM |  | CCC(CC)C(=O)N1CCN(C(=O)c2cc(Oc3n[nH]c(=O)c4ccccc34)ccc2F)CC1 [Compound 61, 4-(3-(4-(2-ethylbutyryl)piperazine-1-carbonyl)-4-fluorophenoxy)-2H-phthalazin-1-one] | 
5 |  | 0.65 mg/mL (≈ 1580 µM) | CC(C)N1CCN(C(=O)c2cc(Oc3n[nH]c(=O)c4ccccc34)ccc2F)CC1 [Compound 79, 4-(4-fluoro-3-(4-isopropyl-1-carbonyl)phenoxy)-2H-phthalazin-1-one] | 
6 | 3.35 µM |  | O=C(c1cc(Oc2n[nH]c(=O)c3ccccc23)ccc1F)N1CCN(C(=O)N2CCCCC2)CC1 [Compound 85, 4-(4-fluoro-3-(4-(piperidine-1-carbonyl)piperazine-1-carbonyl)phenoxy)-2H-phthalazin-1-one] | 
7 | 3.28 µM |  | O=C(c1cc(Oc2n[nH]c(=O)c3ccccc23)ccc1F)N1CCN(C(=O)c2ccccc2[N+](=O)[O-])CC1 [Compound 88, 4-(4-fluoro-3-(4-(2-nitrobenzoyl)piperazine-1-carbonyl)phenoxy)-2H-phthalazin-1-one] | 
8 | 2.63 µM |  | O=C(c1cc(Oc2n[nH]c(=O)c3ccccc23)ccc1F)N1CCN(C(=O)C2CCCCC2)CC1 [Compound 99] | 
9 | 4.12 µM | 0.66 mg/mL (≈ 1560 µM) | CCC(=O)N1CCN(C(=O)c2cc(Oc3n[nH]c(=O)c4ccccc34)ccc2F)CC1 [Compound 100, 4-(4-fluoro-3-(4-propionylpiperazine-1-carbonyl)phenoxy)2H-phthalazin-1-one] | 
10 | 3.17 µM |  | O=C(c1cc(Oc2n[nH]c(=O)c3ccccc23)ccc1F)N1CCN(C(=O)C2CCC(F)(F)CC2)CC1 [Compound 107, 4-(3-(4-(4,4-difluorocyclohexanecarbonyl)piperazine-1-carbonyl)-4-fluorophenoxy)2H-phthalazin-1-one] | 
11 | 3.7 µM | 1.44 mg/mL (≈ 3000 µM) | CN(C)C1(C(=O)N2CCN(C(=O)c3cc(Oc4n[nH]c(=O)c5ccccc45)ccc3F)CC2)CC1 [Compound 124, 4-(3-(4-(1-(dimethylamino)cyclopropanecarbonyl)piperazine-1-carbonyl)-4-fluorophenoxy)2H-phthalazin-1-one] | 
12 |  | 0.671 mg/mL (≈ 1490 µM) | NC1(C(=O)N2CCN(C(=O)c3cc(Oc4n[nH]c(=O)c5ccccc45)ccc3F)CC2)CC1 [Compound 125, 4-(3-(4-(1-aminocyclopropanecarbonyl)piperazine-1-carbonyl)-4-fluorophenoxy)2H-phthalazin-1-one] | 
13 |  | 0.63 mg/mL (≈ 1310 µM) | CNC1(C(=O)N2CCN(C(=O)c3cc(Oc4n[nH]c(=O)c5ccccc45)ccc3F)CC2)CCC1 [Compound 127, 4-(4-fluoro-3-(4-(1-(methylamino)cyclobutanecarbonyl)piperazine-1-carbonyl)phenoxy)2H-phthalazin-1-one] | 
14 | 3.85 µM |  | C[C@]1(C(=O)N2CCN(C(=O)c3cc(Oc4n[nH]c(=O)c5ccccc45)ccc3F)CC2)CCCN1 [Compound 130, (R)-4-(4-fluoro-3-(4-(2-methylpyrrolidine-2-carbonyl)piperazine-1-carbonyl)phenoxy)-2H-phthalazin-1-one] | 
15 |  |  | O=C1NCCc2c(OCCCCN3CCCCC3)cccc21 [DPQ, 3,4-dihydro-5-[4-(1-piperidinyl)butoxy]-1(2H)-isoquinolinone] | reduction in infarct volume [4]: 54%

Row | SMILES | IC50 [1] | solubility at 24 h [2] | other results
16 | O=C(c1cc(Cc2n[nH]c(=O)c3ccccc23)ccc1F)N1CCN(C(=O)C2CC2)CC1 [AZD-2281, reference compound] | 4.38 µM | 0.531 mg/mL (≈ 1220 µM) | 
